Read-outs that look alike come from different tables or passages of the source.
Test system: HBV
Assay: PHH screening protocol: HBsAg and HBeAg levels by MSD ELISA
Type: cell-based, Hepatitis B Virus
Conditions: for EC50: Hepatitis B virus
Protocol: HBV antiviral activity was assessed in primary human hepatocytes (PHH) in a 96-well format. PHH were (Life Technologies, Chicago, 11) plated on collagen coated tissue culture plates using Plating Media containing William's Medium E supplemented with 1% Penicillin/Streptomycin, 4 μg/mL human recombinant insulin, 2 mM glutamax, 15 mM Hepes, 1 μM dexamethasone and 5% fetal bovine serum (Life Technologies, Cat#A12176-01 Life Technologies, Chicago, Ill.). After a 4-hour incubation at 37° C., cells were switched to Maintenance Media (Cat#CM4000-A15564 Life Technologies, Chicago, Ill.) containing William's Medium E supplemented with 0.5% Penicillin/Streptomycin, 6.25 μg/mL human recombinant insulin, 6.25 μg/mL human transferrin, 6.25 ng/mL selenous acid, 1.25 mg/mL bovine serum albumin, 5.35 μg/mL linoleic acid, 2 mM glutamax, 15 mM Hepes, 0.1 μM dexamethasone, 2% fetal bovine serum, and 2% DMSO (Cat#D2650 Sigma, St. Louis, Mo.). On the next day, cells were infected with approximately 500 genome equivalent of selected HBV clinical isolates (21P (GTA), 32P (GTA), 91P (GTA), AD38 (GTD), 65P (GTD) or 30P (GTE); ProteoGenex, Culver City, Calif.) per cell in Maintenance Media supplemented with 4% PEG 8000 (Cat#V3011 Promega, Madison, Wis.). After 24 hour incubation cells were washed three times with William's Medium E and fed with fresh Maintenance Media. Small molecule inhibitors targeting KDMs were serially diluted in Maintenance Media and added to cells at 3 days post infection (p.i.). Media with compounds was replenished every 2-3 days. Media collected on various days was used for determination of HBsAg and HBeAg levels by MSD ELISA, and HBV RNA by qPCR. All data were converted into percentages of the untreated control and non-linear regression was performed to calculate EC50 or CC50 values.

CCOC(=O)c1ccnc(CNCC(=O)N(CC)CCN(C)C)c1 [Example 8]
EC50 (336 h, read-out: HBeAg EC50, virus 30P, PHH donor 4239, d 14, compound removed after 14 days of treatment): 4310 nM | EC50 (336 h, read-out: HBeAg EC50, virus 30P, PHH donor 4239, d 17, compound removed after 14 days of treatment): 141 nM | EC50 (336 h, read-out: HBeAg EC50, virus 30P, PHH donor 4239, d 20, compound removed after 14 days of treatment): 111 nM | EC50 (336 h, read-out: HBeAg EC50, virus 30P, PHH donor 4239, d 25, compound removed after 14 days of treatment): 15 nM | EC50 (336 h, read-out: HBeAg EC50, virus 30P, PHH donor 4239, d 31, compound removed after 14 days of treatment): 36 nM | EC50 (336 h, read-out: HBeAg EC50, virus 30P, PHH donor 8130, d 14, compound removed after 14 days of treatment): 318 nM | EC50 (336 h, read-out: HBeAg EC50, virus 30P, PHH donor 8130, d 17, compound removed after 14 days of treatment): 24 nM | EC50 (336 h, read-out: HBeAg EC50, virus 30P, PHH donor 8130, d 20, compound removed after 14 days of treatment): 20 nM | EC50 (336 h, read-out: HBeAg EC50, virus 30P, PHH donor 8130, d 25, compound removed after 14 days of treatment): 2 nM | EC50 (336 h, read-out: HBeAg EC50, virus 30P, PHH donor 8130, d 31, compound removed after 14 days of treatment): 2 nM | EC50 (336 h, read-out: HBeAg EC50, virus AD38, PHH donor 4239, d 14, compound removed after 14 days of treatment): > 15000 nM | EC50 (336 h, read-out: HBeAg EC50, virus AD38, PHH donor 4239, d 17, compound removed after 14 days of treatment): 1660 nM | EC50 (336 h, read-out: HBeAg EC50, virus AD38, PHH donor 4239, d 20, compound removed after 14 days of treatment): 670 nM | EC50 (336 h, read-out: HBeAg EC50, virus AD38, PHH donor 4239, d 25, compound removed after 14 days of treatment): 110 nM | EC50 (336 h, read-out: HBeAg EC50, virus AD38, PHH donor 4239, d 31, compound removed after 14 days of treatment): 200 nM | EC50 (336 h, read-out: HBeAg EC50, virus AD38, PHH donor 8130, d 14, compound removed after 14 days of treatment): 2420 nM | EC50 (336 h, read-out: HBeAg EC50, virus AD38, PHH donor 8130, d 17, compound removed after 14 days of treatment): 840 nM | EC50 (336 h, read-out: HBeAg EC50, virus AD38, PHH donor 8130, d 20, compound removed after 14 days of treatment): 190 nM | EC50 (336 h, read-out: HBeAg EC50, virus AD38, PHH donor 8130, d 25, compound removed after 14 days of treatment): 30 nM | EC50 (336 h, read-out: HBeAg EC50, virus AD38, PHH donor 8130, d 31, compound removed after 14 days of treatment): 10 nM | EC50 (336 h, read-out: HBsAg EC50, virus 30P, PHH donor 4239, d 14, compound removed after 14 days of treatment): > 15000 nM | EC50 (336 h, read-out: HBsAg EC50, virus 30P, PHH donor 4239, d 17, compound removed after 14 days of treatment): 207 nM | EC50 (336 h, read-out: HBsAg EC50, virus 30P, PHH donor 4239, d 20, compound removed after 14 days of treatment): 26 nM | EC50 (336 h, read-out: HBsAg EC50, virus 30P, PHH donor 4239, d 25, compound removed after 14 days of treatment): 28 nM | EC50 (336 h, read-out: HBsAg EC50, virus 30P, PHH donor 4239, d 31, compound removed after 14 days of treatment): 32 nM | EC50 (336 h, read-out: HBsAg EC50, virus 30P, PHH donor 8130, d 14, compound removed after 14 days of treatment): 1 nM | EC50 (336 h, read-out: HBsAg EC50, virus 30P, PHH donor 8130, d 17, compound removed after 14 days of treatment): 19 nM | EC50 (336 h, read-out: HBsAg EC50, virus 30P, PHH donor 8130, d 20, compound removed after 14 days of treatment): 3 nM | EC50 (336 h, read-out: HBsAg EC50, virus 30P, PHH donor 8130, d 25, compound removed after 14 days of treatment): 2 nM | EC50 (336 h, read-out: HBsAg EC50, virus 30P, PHH donor 8130, d 31, compound removed after 14 days of treatment): 2 nM | EC50 (336 h, read-out: HBsAg EC50, virus AD38, PHH donor 4239, d 14, compound removed after 14 days of treatment): 6300 nM | EC50 (336 h, read-out: HBsAg EC50, virus AD38, PHH donor 4239, d 17, compound removed after 14 days of treatment): 842 nM | EC50 (336 h, read-out: HBsAg EC50, virus AD38, PHH donor 4239, d 20, compound removed after 14 days of treatment): 300 nM | EC50 (336 h, read-out: HBsAg EC50, virus AD38, PHH donor 4239, d 25, compound removed after 14 days of treatment): 372 nM | EC50 (336 h, read-out: HBsAg EC50, virus AD38, PHH donor 4239, d 31, compound removed after 14 days of treatment): 152 nM | EC50 (336 h, read-out: HBsAg EC50, virus AD38, PHH donor 8130, d 14, compound removed after 14 days of treatment): 2010 nM | EC50 (336 h, read-out: HBsAg EC50, virus AD38, PHH donor 8130, d 17, compound removed after 14 days of treatment): 920 nM | EC50 (336 h, read-out: HBsAg EC50, virus AD38, PHH donor 8130, d 20, compound removed after 14 days of treatment): 81 nM | EC50 (336 h, read-out: HBsAg EC50, virus AD38, PHH donor 8130, d 25, compound removed after 14 days of treatment): 80 nM | EC50 (336 h, read-out: HBsAg EC50, virus AD38, PHH donor 8130, d 31, compound removed after 14 days of treatment): 12 nM | EC50 (408 h, read-out: HBsAg EC50, virus 21P (GTA), PHH 4239, day 17 p.i.): 700 nM | EC50 (408 h, read-out: HBsAg EC50, virus 21P (GTA), PHH 8130, day 17 p.i.): 200 nM | EC50 (408 h, read-out: HBsAg EC50, virus 21P (GTA), PHH 8181, day 17 p.i.): 20 nM | EC50 (408 h, read-out: HBsAg EC50, virus 30P (GTE), PHH 4239, day 17 p.i.): 300 nM | EC50 (408 h, read-out: HBsAg EC50, virus 30P (GTE), PHH 8130, day 17 p.i.): 200 nM | EC50 (408 h, read-out: HBsAg EC50, virus 30P (GTE), PHH 8181, day 17 p.i.): < 5 nM | EC50 (408 h, read-out: HBsAg EC50, virus 32P (GTA), PHH 4239, day 17 p.i.): 30 nM | EC50 (408 h, read-out: HBsAg EC50, virus 32P (GTA), PHH 8130, day 17 p.i.): 80 nM | EC50 (408 h, read-out: HBsAg EC50, virus 32P (GTA), PHH 8181, day 17 p.i.): < 2 nM | EC50 (408 h, read-out: HBsAg EC50, virus 65P (GTD), PHH 4239, day 17 p.i.): 300 nM | EC50 (408 h, read-out: HBsAg EC50, virus 65P (GTD), PHH 8130, day 17 p.i.): 2400 nM | EC50 (408 h, read-out: HBsAg EC50, virus 65P (GTD), PHH 8181, day 17 p.i.): < 2 nM | EC50 (408 h, read-out: HBsAg EC50, virus 91P (GTA), PHH 4239, day 17 p.i.): 60 nM | EC50 (408 h, read-out: HBsAg EC50, virus 91P (GTA), PHH 8130, day 17 p.i.): 30 nM | EC50 (408 h, read-out: HBsAg EC50, virus 91P (GTA), PHH 8181, day 17 p.i.): < 6 nM | EC50 (408 h, read-out: HBsAg EC50, virus AD38 (GTD), PHH 4239, day 17 p.i.): 2000 nM | EC50 (408 h, read-out: HBsAg EC50, virus AD38 (GTD), PHH 8130, day 17 p.i.): 1400 nM | EC50 (408 h, read-out: HBsAg EC50, virus AD38 (GTD), PHH 8181, day 17 p.i.): < 5 nM | EC50 (read-out: EC50 values (HBsAg), PHH donors 4239 and 8130, across patient viruses): 30 to 2400 nM | EC50 (read-out: HBeAg EC50, D 8, PHH donor 8181, virus 21p): > 50000 nM | EC50 (read-out: HBeAg EC50, D 13, PHH donor 8181, virus 21p): 160 nM | EC50 (read-out: HBeAg EC50, D 17, PHH donor 8181, virus 21p): < 20 nM | EC50 (read-out: HBeAg EC50, D 22, PHH donor 8181, virus 21p): < 20 nM | EC50 (read-out: HBeAg EC50, D 27, PHH donor 8181, virus 21p): < 20 nM | EC50 (read-out: HBeAg EC50, D 31, PHH donor 8181, virus 21p): < 20 nM | EC50 (read-out: HBeAg EC50, HBV-infected PHH): 188 nM | EC50 (read-out: HBsAg EC50, D 8, PHH donor 8181, virus 21p): > 50000 nM | EC50 (read-out: HBsAg EC50, D 13, PHH donor 8181, virus 21p): 150 nM | EC50 (read-out: HBsAg EC50, D 17, PHH donor 8181, virus 21p): < 20 nM | EC50 (read-out: HBsAg EC50, D 22, PHH donor 8181, virus 21p): < 20 nM | EC50 (read-out: HBsAg EC50, D 27, PHH donor 8181, virus 21p): < 20 nM | EC50 (read-out: HBsAg EC50, D 31, PHH donor 8181, virus 21p): < 20 nM | EC50 (read-out: HBsAg EC50, HBV-infected PHH): 67 nM | inhibition of HBV HBsAg and HBeAg secretion compared to untreated cells (PHH donor 8181): more than 10 fold | time dependency of anti HBV activity (PHH donor 8181 infected with patient virus 21p (GTA)): time dependent
